Measured values reported in patent US12616672B2, “Methods for assessing risk of cardiovascular disease and methods and compounds for use in treating or preventing cardiovascular disease” (Queen Mary University of London, priority 2017, dated 2026).
Where “and” joins values, the source holds several entries; their conditions need not be identical. Equal values may be shown once.

Key:
[1] = tested on: Apo E^−/− mice; assay: Apo E−/− mice given RvD5n-3 DPA: lipid mediator profiling of descending aorta; format: in vivo, mouse
Method: Plasma was obtained from peripheral blood of healthy volunteers and patients following centrifugation at 1500×g for 10 min at room temperature. Descending aortas were weighed, placed in ice-cold methanol and homogenized using a glass dounce.
All samples for LC-MS-MS-based profiling were extracted using solid-phase extraction columns as described in Dalli et al. 2013 and Rathod et al. 2017, the contents of which are incorporated herein by reference.
Prior to sample extraction, deuterated internal standards, representing each region in the chromatographic analysis (500 pg each) were added to facilitate quantification in 4V of cold methanol.
Samples were kept at −20° C. for a minimum of 45 min to allow protein precipitation.
Supernatants were subjected to solid phase extraction, methyl formate fraction collected, brought to dryness and suspended in phase (methanol/water, 1:1, vol/vol) for injection on a Shimadzu LC-20AD HPLC and a Shimadzu SIL-20AC autoinjector, paired with a triple quadrupole mass spectrometer with or without a linear ion trap.
An Agilent Poroshell 120 EC-C18 column (100 mm×4.6 mm×2.7 μm) was kept at 50° C. and mediators eluted using a mobile phase consisting of methanol-water-acetic acid of 20:80:0.01 (vol/vol/vol) that was ramped to 50:50:0.01 (vol/vol/vol) over 0.5 min and then to 80:20:0.01 (vol/vol/vol) from 2 min to 11 min, maintained till 14.5 min and then rapidly ramped to 98:2:0.01 (vol/vol/vol) for the next 0.1 min. This was subsequently maintained at 98:2:0.01 (vol/vol/vol) for 5.4 min, and the flow rate was maintained at 0.5 ml/min. Mass spectrometer was operated using a multiple reaction monitoring method as in Walker M E et al. 13-Series resolvins mediate the leukocyte-platelet actions of atorvastatin and pravastatin in inflammatory arthritis. FASEB J. 2017 August; 31(8):3636-3648, the contents of which are incorporated herein by reference.
Each LM was identified using established criteria including matching retention time to synthetic and authentic materials and at least six diagnostic ions (Walker M E et al. 2017. ibid.)
Calibration curves were obtained for each using synthetic compound mixtures at 0.78, 1.56, 3.12, 6.25, 12.5, 25, 50, 100, and 200 pg that gave linear calibration curves with an r^2 values of 0.98-0.99.
Mice (male and female) were fed a western diet for 6 weeks from 4 weeks of age and kept of a 12 h light dark cycle. At 8 weeks of age, mice were given RvD5n-3 DPA (100 ng/mouse; i.v.) or vehicle on alternate days for a 2-week period. Mice were culled, aortic arches were collected and stained using oil-red O as in Khambata R S et al. Anti-inflammatory actions of inorganic nitrate stabilize the atherosclerotic plaque. Proc Natt Acad Sci USA. 2017; 114(4):E550-E559, the contents of which are incorporated herein by reference. Staining intensity was determined using image processing software and expressed as relative units per mm^2. The descending aorta was collected, placed in ice-cold methanol and lipid mediators identified and quantified as described above.

[2] = tested on: peripheral blood leukocytes and platelets from CVD patients; assay: CVD patient whole blood incubated with RvD2n-3 DPA or RvD5n-3 DPA for 45 min, flow cytometry; format: cell-based, human; conditions: no PAF
Method: FIG. 8: RvD2n-3 DPA and RvD5n-3 DPA reduce leukocyte activation in peripheral blood from CVD patients. Peripheral blood from patients diagnosed with cardiovascular disease (CVD) was collected at 9:00 h. […] Expression of CD62P on (A) neutrophils (B) monocytes and CD11b on (C) neutrophils and (D) monocytes was investigated using flow cytometry and fluorescently labelled antibodies.
Whole blood was incubated with lineage-specific markers for 45 min (4° C., in DPBS containing 0.02% BSA). The following anti-human antibodies were used: VioBlue-anti-CD41, PE-Cy5-anti-CD62P, Brilliant Violet 711-anti-CD11b, APC-Cy7-anti-CD16, Alexa Fluor 647-anti-CD14. After staining, red blood cells were lysed using Whole Blood Lysing Reagent Kit, according to the manufacturer's instructions. Data was collected using a flow cytometer and analysis was conducted using appropriate software.
In select experiments platelet adhesion molecule expression was assessed. Here platelets were incubated with fluorescently labelled mouse anti-human VioBlue-anti-CD41, PE-Cy5-anti-CD62P, PerCP/Cy5.5-anti-CD63 and FITC-ant-CD42b for 30 min at 4° C. Cells were then washed and fluorescence, staining evaluated using LSRFortessa cell analyser (BD Biosciences) and analysed using FlowJo software (Tree Star Inc., V10).

[3] = tested on: peripheral blood leukocytes and platelets from CVD patients; assay: CVD patient whole blood incubated with RvD2n-3 DPA or RvD5n-3 DPA then PAF, flow cytometry; format: cell-based, human
[4] = 100 ng/mouse i.v., alternate days, 2 weeks, vs vehicle
[5] = Apo E−/− mice, western diet, RvD5n-3 DPA 100 ng/mouse i.v. alternate days 2 weeks, descending aorta, mean, n = 4
[6] = ApoE−/− mice, WD 6 weeks, 100 ng/mouse i.v. alternative days, descending aorta, mean ± s.e.m., n = 4
[7] = ApoE−/− mice, WD 6 weeks, 100 ng/mouse i.v. alternative days, descending aorta, n = 4
[8] = CVD patient whole blood, 0.1, 1, 10 nM, 45 min
[9] = CVD patient whole blood, 45 min

CC/C=C\C[C@H](O)/C=C/C=C\C/C=C\C=C\[C@@H](O)CCCCCC(=O)O [RvD5n-3 DPA, 7,17-trihydroxy-8E,10,13,15E,19Z-docosapentaenoic acid]
aortic 15-epi-LXA4 [1, 4]: significant upregulation
aortic MaR1 [1, 4]: significant upregulation
aortic prostanoids [1, 4]: significant reductions
reduction of aortic TxB2 concentrations [1, 4]: ~35% and > 35%
PGD2 concentration in aortic tissue [1, 5]: 15.0 pg/10 mg tissue
PGE2 concentration in aortic tissue [1, 5]: 16.2 pg/10 mg tissue
PGF2a concentration in aortic tissue [1, 5]: 9.1 pg/10 mg tissue
TxB2 concentration in aortic tissue ([1]; Apo E−/− mice, western diet, RvD5n-3 DPA 100 ng/mouse i.v. alternate days 2 weeks, descending aorta, mean, n = 4, p < 0.05 vs Vehicle): 30.7 pg/10 mg tissue
4,14-diHDHA in aorta [1, 6]: 4.9 ± 2.0 pg/10 mg aorta
5S,12S-diHETE in aorta [1, 6]: 0.6 ± 0.2 pg/10 mg aorta
5S,15S-diHETE in aorta [1, 6]: 51.9 ± 15.3 pg/10 mg aorta
7S,14S-diHDHA in aorta [1, 6]: 1.8 ± 0.3 pg/10 mg aorta
10S,17S-diHDHA in aorta [1, 6]: 66.0 ± 35.4 pg/10 mg aorta
15-epi-LXA4 in aorta [1, 6]: 9.6 ± 1.9 pg/10 mg aorta
15-epi-LXB4 in aorta [1, 6]: 1.4 ± 0.5 pg/10 mg aorta
17R-PD1 in aorta [1, 6]: 0.3 ± 0.2 pg/10 mg aorta
17R-RvD1 in aorta [1, 6]: 1.6 ± 0.9 pg/10 mg aorta
17R-RvD3 in aorta [1, 6]: 1.3 ± 0.3 pg/10 mg aorta
22-OH-PD1 in aorta [1, 6]: 6.0 ± 1.0 pg/10 mg aorta
LTB4 in aorta [1, 6]: 1.7 ± 0.3 pg/10 mg aorta
LXA4 in aorta [1, 6]: 0.3 ± 0.0 pg/10 mg aorta
LXB4 in aorta [1, 6]: 0.6 ± 0.4 pg/10 mg aorta
MaR1 in aorta [1, 6]: 35.4 ± 22.7 pg/10 mg aorta
PD1 in aorta [1, 6]: 2.6 ± 0.7 pg/10 mg aorta
PD1n-3 DPA in aorta [1, 6]: 0.0 ± 0.0 pg/10 mg aorta
PGD2 in aorta [1, 6]: 14.9 ± 3.5 pg/10 mg aorta
PGE2 in aorta [1, 6]: 20.5 ± 4.5 pg/10 mg aorta
PGF2α in aorta [1, 6]: 10.0 ± 1.7 pg/10 mg aorta
RvD1 in aorta [1, 6]: 1.7 ± 0.9 pg/10 mg aorta
RvD1n-3 DPA in aorta [1, 6]: 0.1 ± 0.1 pg/10 mg aorta
RvD2 in aorta [1, 6]: 0.4 ± 0.4 pg/10 mg aorta
RvD2n-3 DPA in aorta [1, 6]: 0.1 ± 0.1 pg/10 mg aorta
RvD3 in aorta [1, 6]: 2.4 ± 0.6 pg/10 mg aorta
RvD5 in aorta [1, 6]: 0.4 ± 0.2 pg/10 mg aorta
RvD5n-3 DPA in aorta [1, 6]: 0.1 ± 0.1 pg/10 mg aorta
RvD6 in aorta [1, 6]: 1.5 ± 1.1 pg/10 mg aorta
RvE2 in aorta [1, 6]: 0.1 ± 0.1 pg/10 mg aorta
RvE3 in aorta [1, 6]: 0.7 ± 0.1 pg/10 mg aorta
RvEl in aorta [1, 6]: 1.8 ± 0.5 pg/10 mg aorta
TxB2 in aorta [1, 6]: 34.5 ± 4.1 pg/10 mg aorta
20-OH-LTB4 in aorta [1, 7]: — (Below limits of detection)
MaR1n-3 DPA in aorta [1, 7]: — (Below limits of detection)
RvD4 in aorta [1, 7]: — (Below limits of detection)
RvT1 in aorta [1, 7]: — (Below limits of detection)
RvT2 in aorta [1, 7]: — (Below limits of detection)
RvT3 in aorta [1, 7]: — (Below limits of detection)
RvT4 in aorta [1, 7]: — (Below limits of detection)
monocyte CD11b expression [2, 8]: significantly reduced
neutrophil CD11b expression [2, 8]: significantly reduced
platelet-monocyte aggregates [2, 8]: reduction
platelet-neutrophil aggregates [2, 8]: reduction
platelet CD62P expression [2, 9]: downregulated
platelet CD63 expression [2, 9]: downregulated
potency in reducing neutrophil-platelet and monocyte-platelet aggregates, compared ([2]; CVD patient whole blood): higher potency than RvD2n-3 DPA
expression of CD62P on peripheral blood platelets [3]: dose-dependently regulated
expression of CD63 on peripheral blood platelets [3]: dose-dependently regulated
